The numbers were not newly measured in US20070122507A1, “Histone deacetylase and tumor necrosis factor converting enzyme inhibition” (priority 2005, published 2007), which cites them from elsewhere.

Molecules are shown by their SMILES.

The test system of the data set is R6/2 transgenic mouse models. To be noted: HD in R6/2 transgenic mouse models.

As for `CCCC(=O)[O-].[Na+]` [sodium butyrate], the motor deficits entry is reported as “reduces”, the neuropathological effects entry is listed as “reduces” and the survival entry was “significantly enhances survival”.
